# Several values for one entry are separate records, joined by “and”; a condition that tells them apart may be missing. Equal values may be shown once.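 Results reflect a 48-hour exposure of cells in 96-well plates to compound at five concentrations. GI50 = concentration required for 50% inhibition of growth. TGI: total growth inhibition.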
# Experiments:
# Assay in all cases: NCI tumour cell line growth inhibition, 48 h
# HT29 colon = system: HT29 colon
# LXFL 529 NSCLC = system: LXFL 529 NSCLC
# HOP-18 NSCLC = system: HOP-18 NSCLC
# DLD-1 colon = system: DLD-1 colon
# SNB-75 CNS = system: SNB-75 CNS
# DMS 114 small cell lung = system: DMS 114 small cell lung
# UACC-257 melanoma = system: UACC-257 melanoma
# HOP-92 NSCLC = system: HOP-92 NSCLC
# MDA-MB-435 = system: MDA-MB-435
# T-47D breast = system: T-47D breast
SMILES,TGI (HT29 colon),TGI (LXFL 529 NSCLC),TGI (HOP-18 NSCLC),TGI (DLD-1 colon),TGI (SNB-75 CNS),TGI (DMS 114 small cell lung),TGI (UACC-257 melanoma),TGI (HOP-92 NSCLC),GI50 (HT29 colon),GI50 (LXFL 529 NSCLC),GI50 (HOP-18 NSCLC),GI50 (DLD-1 colon),GI50 (SNB-75 CNS),GI50 (HOP-92 NSCLC),GI50 (DMS 114 small cell lung),GI50 (UACC-257 melanoma),GI50 (MDA-MB-435),TGI (MDA-MB-435),GI50 (T-47D breast),TGI (T-47D breast)
COc1ccc(OC)c2cc(C3(C)SCCCS3)ccc12,> 100 µM,> 100 µM,> 100 µM,> 100 µM,> 100 µM,> 100 µM,> 100 µM,,,,,,,,,,,,,
C=CCN(N=O)C(=O)N(CCC)CCCCC(NC(C)=O)C(=O)NCc1ccccc1 (stereo not drawn),83.6 µM,> 100 µM,> 100 µM,,> 100 µM,> 100 µM,> 100 µM,> 100 µM,,,,,,,,,,,,
CSC(=S)NNC(=O)c1ccncc1,37.8 µM,29.3 µM,> 100 µM,34.6 µM,65.7 µM,28.6 µM,56.7 µM,60.8 µM,,,,,,,,,,,,
O=C(C=Nc1ccccc1C(=O)[O-])c1cccs1.O=C(C=Nc1ccccc1C(=O)[O-])c1cccs1.[Cu+2],> 100 µM,,,> 10 µM,> 10 µM,,> 100 µM,> 100 µM,,,,,,,,,,,,
COC(=O)C1=CC2OC1(C)C1(CC1)C2=O (stereo not drawn),25.5 µM,32.9 µM,,37.3 µM,50 µM,,31 µM,,,,,,,,,,,,,
Cc1ccc2[nH]c(=O)c(C(C#N)c3ccccc3)nc2c1 (stereo not drawn),> 100 µM,> 100 µM,> 100 µM,> 100 µM,> 100 µM,,> 100 µM,93.8 µM,,,,,,,,,,,,
COC(=O)C(=O)C(C(=O)C(=O)Nc1cc([N+](=O)[O-])ccc1[N+](=O)[O-])c1nc2ccc(C(=O)c3ccccc3)cc2[nH]c1=O (stereo not drawn),> 100 µM,57.9 µM,95.1 µM,> 100 µM,,66.5 µM,> 100 µM,,,,,,,,,,,,,
COc1ccccc1NC(=O)C1=C(C)NC(C)=C(C(=O)Nc2ccccc2OC)C1c1ccccc1OC,> 100 µM,> 100 µM,> 100 µM,> 100 µM,69 µM,> 100 µM,> 100 µM,> 100 µM,,,,,,,,,,,,
CC1OC(O)CC(OC(=O)c2ccccc2)C1OC(=O)c1ccccc1 (stereo not drawn),42.2 µM,29.8 µM,56.8 µM,28.4 µM,,,29.4 µM,35 µM,,,,,,,,,,,,
CC12CC3CC(C)(C1)CC(N=[N+]=[N-])(C3)C2,> 100 µM,> 100 µM,> 100 µM,> 100 µM,> 100 µM,> 100 µM,> 100 µM,> 100 µM,,,,,,,,,,,,
CCOC(=O)C1=C(C)N(NC(=O)c2ccccc2)C2(O)CCCC12C(=O)OCC (stereo not drawn),> 100 µM,> 100 µM,,,> 100 µM,> 100 µM,> 100 µM,,,,,,,,,,,,,
CCC[CH2][Sn]([CH2]CCC)([S]C1=NCCS1)[S]C1=NCCS1,2.58 µM,0.169 µM,2.33 µM,1.31 µM,1.39 µM,0.435 µM,1.44 µM,0.529 µM,1.07 µM,0.0423 µM,1.12 µM,0.275 µM,0.0857 µM,0.227 µM,0.117 µM,0.323 µM,,,,
COC(=O)C1C(=O)O[C@@H](c2ccc(OC)cc2OC)C1C(=O)OC (stereo partly drawn),> 100 µM,> 100 µM,> 100 µM,> 100 µM,> 100 µM,> 100 µM,> 100 µM,> 100 µM,,,,,,,,,,,,
Cn1c2cccc3nnc4cccc(c4c32)n1C,> 100 µM,> 100 µM,,> 100 µM,,> 100 µM,> 100 µM,> 100 µM,,,,,,,,,,,,
COC(=O)C1=CC2OC13CC1CCC3(C2=O)C1(C)C (stereo not drawn),27.7 µM,16.7 µM,24 µM,,19.9 µM,20.3 µM,24.1 µM,,,,,,,,,,,,,
Nc1ccn([C@@H]2C=C(CO)[C@@H](O)[C@H]2O)c(=O)n1,394 µM and > 625 µM,,500 µM,500 µM and > 625 µM,128 µM and > 625 µM,449 µM and > 625 µM,470 µM,,,,,0.0625 µM,,,0.0677 µM,2.97 µM and 1.12 µM,0.0377 µM,500 µM,0.581 µM,261 µM
CCOC(=O)/C=C1\Nc2ccccc2-n2nnnc21,> 100 µM,> 100 µM,> 100 µM,> 100 µM,> 100 µM,> 100 µM,> 100 µM,> 100 µM,,,,,,,,,,,,
CC1C(=O)N(C)C2(CO)C(=O)O[C@H](C)C12O (stereo partly drawn),> 100 µM,,> 100 µM,> 100 µM,,> 100 µM,,,,,,,,,,,,,,
CCC(=C(c1ccc(OCc2ccccc2)cc1)c1ccc(OCc2ccccc2)cc1)c1ccc(OC)cc1,> 100 µM,> 100 µM,,> 100 µM,> 100 µM,> 100 µM,,> 100 µM,,,,,,,,,,,,
O=C1c2ccccc2C(=O)c2nc(-c3ccccc3)c(-c3ccccc3)nc21,> 100 µM,> 100 µM,> 100 µM,> 100 µM,29.2 µM,> 100 µM,,> 100 µM,,,,,,,,,,,,

SMILES,TGI (HT29 colon),TGI (LXFL 529 NSCLC),TGI (HOP-18 NSCLC),TGI (DLD-1 colon),TGI (SNB-75 CNS),TGI (DMS 114 small cell lung),TGI (UACC-257 melanoma),TGI (HOP-92 NSCLC),GI50 (HT29 colon),GI50 (LXFL 529 NSCLC),GI50 (HOP-18 NSCLC),GI50 (DLD-1 colon),GI50 (SNB-75 CNS),GI50 (HOP-92 NSCLC),GI50 (DMS 114 small cell lung),GI50 (UACC-257 melanoma),GI50 (MDA-MB-435),TGI (MDA-MB-435),GI50 (T-47D breast),TGI (T-47D breast)
CC(=O)Nc1ccc(/C=C/C(=O)c2sc(C(N)=S)nc2C)cc1,> 100 µM,,> 100 µM,> 100 µM,> 100 µM,> 100 µM,> 100 µM,> 100 µM,,,,,,,,,,,,
Cc1ccc(C2=NO[C@@H]3C(=O)N(c4ccc(Cc5ccc(N6C(=O)[C@H]7C(c8ccc(C)cc8)=NO[C@H]7C6=O)cc5)cc4)C(=O)[C@H]23)cc1,> 100 µM,> 100 µM,> 100 µM,> 100 µM,> 100 µM,> 100 µM,> 100 µM,> 100 µM,,,,,,,,,,,,
CNC1C(O)CC(OC2C/C=C(\C)C/C(C)=C/C=C/CCC(C)CNC(=O)/C=C/C=C/C2C)OC1C (stereo not drawn),0.504 µM,0.308 µM,3.08 µM,1.45 µM,2.91 µM,0.402 µM,1.65 µM,2.11 µM,,,,,,,,,,0.82 µM,,3.18 µM
CCCCCCCCCCCC(=O)OCC1OC(n2cc(F)c(=O)[nH]c2=O)C(N)C(O)C1O (stereo not drawn),> 100 µM,> 100 µM,> 100 µM,> 100 µM,> 100 µM,> 100 µM,> 100 µM,> 100 µM,,,,,,,,,,,,
Nc1nc(N)c(-c2ccc(Cl)cc2)c(CCC(=O)Nc2cccc(C(F)(F)F)c2)n1,> 100 µM,> 100 µM,> 100 µM,> 100 µM,> 100 µM,> 100 µM,> 100 µM,,,,,,,,,,,,,
CN(C)CC1CCn2c(c(C3=C(c4cn(C)c5ccccc45)C(=O)NC3=O)c3ccccc32)C1 (stereo not drawn),7.83 µM,,,,5.28 µM,,7.52 µM,6.55 µM,3.16 µM,,,,0.772 µM,1.78 µM,,3.93 µM,3.7 µM,7.49 µM,5.1 µM,10.7 µM
CN(CCC(=O)O)S(=O)(=O)c1ccccc1,> 100 µM,,,,> 100 µM,,> 100 µM,> 100 µM,,,,,,,,,,> 100 µM,,> 100 µM
CN1CCN(Cc2ccc(Nc3ncc(Cl)c(Nc4ccccc4S(=O)(=O)N(C)C)n3)cc2)CC1,0.577 µM,,,,0.308 µM,,0.82 µM,1.68 µM,0.0308 µM,,,,0.0948 µM,0.0999 µM,,0.0473 µM,0.0274 µM,0.429 µM,0.116 µM,0.965 µM
CN=S(=O)(C[C@]1(O)CC2OC1C1OC(C)(C)OC21)c1ccccc1 (stereo partly drawn),> 100 µM,> 100 µM,,,> 100 µM,> 100 µM,> 100 µM,> 100 µM,,,,,,,,,,,,
Cc1c(Cl)ccc2c1NC(=O)C2(O)C1Cc2ccccc2C1=O (stereo not drawn),> 100 µM,> 100 µM,> 100 µM,> 100 µM,,> 100 µM,> 100 µM,> 100 µM,,,,,,,,,,,,
COc1cccc2c1c1nc3cc(C)c(C)cc3nc1n2CCN(C)C,10.7 µM,,,,5.56 µM,,4.74 µM,6.73 µM,1.68 µM,,,,1.1 µM,1.13 µM,,1.9 µM,1.83 µM,4.14 µM,2.76 µM,13.6 µM
Cc1cc(C)nc(SC2=C(Nc3cccc(Cl)c3)C(=O)N(Cc3ccccc3)C2=O)n1,> 170 µM,,,,> 170 µM,,> 170 µM,> 170 µM,> 170 µM,,,,> 170 µM,> 170 µM,,> 170 µM,> 170 µM,> 170 µM,> 170 µM,> 170 µM
COc1ccc(F)cc1C(=O)c1cnc(NC2CCN(S(C)(=O)=O)CC2)nc1N,> 18.2 µM,,,,10.2 µM,,15.5 µM,9.59 µM,2.86 µM,,,,3.97 µM,1.35 µM,,4.24 µM,2.39 µM,> 25 µM,4.49 µM,> 22.6 µM
COc1ccc2c(c1)Cc1c-2c(NN)nc2ccccc12,> 100 µM,,,,> 100 µM,,> 100 µM,71.6 µM,31.5 µM,,,,42.8 µM,22.8 µM,,53.7 µM,3.8 µM,> 100 µM,26.5 µM,> 100 µM
COc1cc(-c2c(C)c(C)nc(OC)c2C#N)cc(OC)c1OC,> 100 µM,> 100 µM,> 100 µM,> 100 µM,> 100 µM,> 100 µM,> 100 µM,> 100 µM,,,,,,,,,,,,
O=C(CC1(O)C(=O)Nc2c(Cl)cc(Cl)cc21)c1ccc2ccccc2c1 (stereo not drawn),18.5 µM,21.3 µM,26.1 µM,26.7 µM,13.5 µM,17.8 µM,27.1 µM,36.2 µM,,,,,,,,,,,,
Cc1cc(C)n(-c2c(O)ccc(O)c2-n2nc(C)cc2C)n1,> 100 µM,> 100 µM,,> 100 µM,> 100 µM,> 100 µM,,> 100 µM,,,,,,,,,,,,
O=C(CC(=O)C(F)(F)F)c1csc2ccccc12,,> 100 µM,,,,> 100 µM,> 100 µM,,,,,,,,,,,,,
Clc1ccc2nc(CCSCCc3nc4ccc(Cl)cc4[nH]3)[nH]c2c1,24.1 µM,19 µM,37 µM,33.8 µM,34.5 µM,,26.3 µM,30.6 µM,,,,,,,,,,,,
O=C(NCC#CCO)C(F)(F)F,> 100 µM,,,> 100 µM,,> 100 µM,> 100 µM,,,,,,,,,,,,,
